Tests used:
Drp1-filamin complex = conditions: Non-Patent Document 6; cited from earlier work
calcium channel = experiment: Calcium antagonism (KCl-induced calcium ion influx, Fura 2-AM); type: cell-based, mouse; conditions: Neuro-2a cells; 0, 1, 10, 100 and 1,000 nM, 30 minutes; potassium chloride 60 mM
Protocol: The compounds prepared in Examples were evaluated for calcium channel blocking activity. Specifically, at first, Neuro-2a cells, mouse-derived neuroblastoma cell line, were cultured in a serum-free medium, and Fura 2-AM (Dojindo Laboratories) that is a calcium ion probe, was added to the medium so that it was taken up by the cells.
Subsequently, after replacing the medium with HEPES buffer (pH 7.4), each compound was each added at final concentrations of 0, 1, 10, 100 and 1,000 nM and the mixtures were incubated for 30 minutes.
Then, depolarization stimulation was applied with potassium chloride (final concentration 60 mM), and the influx of calcium ions into the cells was measured by fluorescence microscopy.
FIGS. 4(a) and (b) are graphs that illustrate the results of measurement of increase in intracellular calcium ion concentration induced by potassium chloride stimulation. Δratio on the vertical axis is expressed by formula (F1) below and represents a value that reflects the intracellular calcium ion concentration.
A ratio=(fluorescence intensity at fluorescence wavelength of 510 nm against an excitation wavelength of 340 nm)/(fluorescence intensity at fluorescence wavelength of 510 nm against an excitation wavelength of 380 nm) Formula (F1)

[1] = system: cardiomyocytes derived from neonatal rats; experiment: Inhibitory effect on mitochondrial hyperfission by hypoxic stimulation; type: cell-based, rat; conditions: 0.3 μM, 1 hour preincubation, 18 hours hypoxic environment; compared with cilnidipine positive control
Protocol: A system for evaluating quantitatively the degree of mitochondrial division in cells was constructed. Specifically, cardiomyocytes derived from neonatal rats were cultured under either normoxia (20%) or hypoxia (1%) for 16 hours. Subsequently, the cells were stained with a fluorescent dye (MitoTracker Green FM, Thermo Fisher Scientific) that selectively stains mitochondria. Then, the mitochondria were observed under a fluorescence microscope, and the mitochondrial morphology was quantitatively measured by image analysis.
FIGS. 2(a) and (b) are each a micrograph and an image explaining a method for quantitatively measuring mitochondrial morphology by image analysis. FIG. 2(a) is a representative fluorescence micrograph showing the general morphology of mitochondria. FIG. 2(b) is an image obtained by filtering the photograph in FIG. 2(a) and extracting the shape of the mitochondria. Image analysis was performed based on the image in FIG. 2(b) to quantify the lengths of mitochondrial fragments. For the quantification, in order to classify the mitochondria into vesicle-shaped, intermediate-shaped and tube-shaped, <3.5 μm is set for vesicle-shaped, 3.6 μm<length<4.2 μm is set for intermediate-shaped, and >4.2 μm is set for tube-shaped, respectively, as thresholds.
The system for evaluation constructed in Test Example 1 was used to evaluate the mitochondrial hyperfission inhibitory effects of the compounds prepared in Examples.
Specifically, at first, each compound was added to the culture medium of cardiomyocytes derived from neonatal rats at a final concentration of 0.3 μM, and the mixture was incubated for 1 hour.
Then, each cells were cultured for an additional 18 hours in a hypoxic environment. Subsequently, mitochondria were stained with MitoTracker Green FM (Thermo Fisher Scientific) or anti-pyruvate dehydrogenase antibody (Abcam) and observed under a fluorescence microscope to quantitatively measure the morphology of mitochondria. For comparison, a group involving cilnidipine as a positive control and a group involving dimethyl sulfoxide (DMSO) as a negative control were also prepared.

[2] = system: cardiomyocytes derived from neonatal rats; experiment: Inhibitory effect on aging of cardiomyocytes under hypoxic stimulation (β-galactosidase, SPiDER-βGAL); type: cell-based, rat; conditions: 1 μM, 1 hour preincubation, 16 hours normoxia (20%) or hypoxia (1%); compared with cilnidipine
Protocol: The compounds prepared in Examples were investigated for effects on the aging of cardiomyocytes. The aging of cardiomyocytes was evaluated by detecting β-galactosidase, one of the aging markers.
Specifically, DOJINDO's cell aging detection kit-SPiDER-βGAL was used for detection according to the attached protocol. Each compound was added to the culture medium of cardiomyocytes derived from neonatal rats at a final concentration of 1 μM and the medium were incubated for 1 hour. Then, the medium was cultured for 16 hours under normoxia (20%) or hypoxia (1%). Subsequently, Bafilomycin A1, which inhibits endogenous β-galactosidase activity, was added and the medium was incubated for 1 hour. After washing the cells with a medium, SPiDER-βGAL was added thereto and the mixture was incubated for 30 minutes. After removing the supernatant, HEPES buffer (pH 7.4) was added thereto and the cells were observed under a fluorescence microscope to detect β-galactosidase in the aging cells. For comparison, a group involving cilnidipine as a positive control and a group involving dimethylsulfoxide (DMSO) as a negative control were prepared.
Arrowheads indicate the β-galactosidase-positive cells.

Compound	inhibition of formation of the Drp1-filamin complex (Drp1-filamin complex)	Ca2+ antagonism (increase in intracellular calcium ion concentration induced by potassium chloride stimulation) (calcium channel)	mitochondrial hyperfission inhibitory effect (percentage of cells with vesicle-shaped mitochondria) [1]	suppressive effect on aging (β-galactosidase-positive cells) [2]
COCCOC(=O)C1=C(C)NC(C)=C(C(=O)OC/C=C/c2ccccc2)C1c1cccc([N+](=O)[O-])c1 (stereo not drawn) [Cilnidipine]	inhibit formation of the Drp1-filamin complex			
COCCOC(=O)C1=C(C)NC(C)=C(C(=O)O)C1c1ccccc1[N+](=O)[O-] (stereo not drawn) [Compound 2, 5-((2-methoxyethoxy)carbonyl)-2,6-dimethyl-4-(2-nitrophenyl)-1,4-dihydropyridine-3-carboxylic acid]		no Ca2+ antagonism	the same as or more effect of cilnidipine	suppressive effect on aging that is the same as cilnidipine
COCCOC(=O)c1c(C)nc(C)c(C(=O)NCCCc2ccncc2)c1-c1ccccc1[N+](=O)[O-] [Compound 4f, 2-Methoxyethyl 2,6-dimethyl-4-(2-nitrophenyl)-5-((3-(pyridin-4-yl)propyl)carbamoyl)nicotinate]		no Ca2+ antagonism	the same as or more effect of cilnidipine	suppressive effect on aging that is the same as cilnidipine
COCCOC(=O)c1c(C)nc(C)c(C(=O)O)c1-c1ccccc1[N+](=O)[O-] [Compound 6, 5-((2-methoxyethoxy)carbonyl)-2,6-dimethyl-4-(2-nitrophenyl)nicotinic acid]		no Ca2+ antagonism	the same as or more effect of cilnidipine	
COCCOC(=O)c1c(C)nc(C)c2c(=O)n(C)c3ccccc3c12 [Compound 10a, 2-Methoxyethyl 2,4,6-trimethyl-5-oxo-5,6-dihydrobenzo[c][2,7]naphthyridine-1-carboxylate]			the same as or more effect of cilnidipine	
COCCOC(=O)c1c(C)nc(C)c2c(=O)n(Cc3ccccc3)c3ccccc3c12 [Compound 10b, 2-Methoxyethyl 6-benzyl-2,4-dimethyl-5-oxo-5,6-dihydrobenzo[c][2,7]naphthyridine-1-carboxylate]			the same as or more effect of cilnidipine	
Cc1nc(C)c2c(=O)[nH]c3ccccc3c2c1C(=O)O [Compound 14, 2,4-dimethyl-5-oxo-5,6-dihydrobenzo[c][2,7]naphthyridine-1-carboxylic acid]		no Ca2+ antagonism	the same as or more effect of cilnidipine	
COCCOC(=O)C1=C(C)NC(C)=C(C(=O)Nc2ccc(OC)cc2)C1c1ccccc1 (stereo not drawn) [Compound 16b, 2-Methoxyethyl 5-((4-methoxyphenyl)carbamoyl)-2,6-dimethyl-4-phenyl-1,4-dihydropyridine-3-carboxylate]		no Ca2+ antagonism	the same as or more effect of cilnidipine	
COCCOC(=O)c1c(C)nc(C)c2c(=O)n(-c3cccc(OC)c3)c3ccccc3c12 [Compound 17a, 2-Methoxyethyl 6-(3-methoxyphenyl)-2,4-dimethyl-5-oxo-5,6-dihydrobenzo[c][2,7]naphthyridine-1-carboxylate]		no Ca2+ antagonism	the same as or more effect of cilnidipine	
COCCOC(=O)c1c(C)nc(C)c2c(=O)n(-c3cccc(C(=O)OC(C)(C)C)c3)c3ccccc3c12 [Compound 17c, 2-Methoxyethyl 6-(3-(tert-butoxycarbonyl)phenyl)-2,4-dimethyl-5-oxo-5,6-dihydrobenzo[c][2,7]naphthyridine-1-carboxylate]			the same as or more effect of cilnidipine	
COCCOC(=O)C1=C(C)NC(C)=C(C(=O)OCCC#N)C1c1cccc([N+](=O)[O-])c1 (stereo not drawn) [Compound 18, 3-(2-cyanoethyl) 5-(2-methoxyethyl) 2,6-dimethyl-4-(3-nitrophenyl)-1,4-dihydropyridine-3,5-dicarboxylate]		no Ca2+ antagonism	the same as or more effect of cilnidipine	
COCCOC(=O)C1=C(C)NC(C)=C(C(=O)NCc2ccccc2)C1c1cccc([N+](=O)[O-])c1 (stereo not drawn) [Compound 20a, 2-Methoxyethyl 5-(benzylcarbamoyl)-2,6-dimethyl-4-(3-nitrophenyl)-1,4-dihydropyridine-3-carboxylate]		no Ca2+ antagonism	the same as or more effect of cilnidipine	
COCCOC(=O)c1c(C)nc(C)c(C(=O)Nc2cccc(C(=O)OC(C)(C)C)c2)c1-c1ccccc1 [Compound 24, 2-Methoxyethoxy 5-((3-(tert-butoxycarbonylcarbonyl)phenyl)carbamoyl)-2,6-dimethyl-4-phenylnicotinate]			the same as or more effect of cilnidipine	
COCCOC(=O)c1c(C)nc(C)c(C(=O)Nc2cccc(C(=O)O)c2)c1-c1ccccc1 [Compound 25, 3-(5-((2-methoxyethoxy)carbonyl)-2,6-dimethyl-4-phenylnicotinamido)benzoic acid]			the same as or more effect of cilnidipine	
COCCOC(=O)c1c(C)nc(C)c(C(=O)Nc2cccc(C(=O)OC)c2)c1-c1ccccc1 [Compound 26, 2-Methoxyethoxy 5-((3-(methoxycarbonyl)phenyl)carbamoyl)-2,6-dimethyl-4-phenylnicotinate]			the same as or more effect of cilnidipine	
COCCOC(=O)C1=C(C)NC(C)=C(C(=O)Nc2cccc(C(=O)OCCC#N)c2)C1c1ccccc1 (stereo not drawn) [Compound 30, 2-Methoxyethyl 5-((3-((2-cyanoethoxy)carbonyl)phenyl)carbamoyl)-2,6-dimethyl-4-phenyl-1,4-dihydropyridine-3-carboxylate]			the same as or more effect of cilnidipine	
COCCOC(=O)C1=C(C)NC(C)=C(C(=O)Nc2cccc(C(=O)O)c2)C1c1ccccc1 (stereo not drawn) [Compound 31, 3-(5-((2-methoxyethoxy)carbonyl)-2,6-dimethyl-4-phenyl-1,4-dihydropyridine-3-carboxamido)benzoic acid]			the same as or more effect of cilnidipine	

From patent US20240002343A1, “COMPOUNDS HAVING INHIBITORY EFFECT ON MITOCHONDRIAL HYPERFISSION” (KYUSHU UNIVERSITY, NATIONAL UNIVERSITY CORPORATION, priority 2020, published 2024)
